{"source": "patent US20050008687A1", "about": "“Metal-porphyrin-complex-embedded liposomes, production process thereof, and medicines making use of the same” (Makoto Yuasa, priority 2003, published 2005)", "key": {"[1]": {"system": "mouse lung cancer cells [Lewis Lung Carcinoma (LLC)]", "experiment": "Anticancer characteristic test: cytotoxicity test (apoptosis test) by the Alamar Blue technique", "type": "cell-based", "details": "FIG. 3", "experimental": "Anticancer characteristics of a Pr-embedded liposome according to the present invention were examined by a cytotoxicity test (apoptosis test) making use of the Alamar Blue technique.\nEmployed were the FeT2 MPyP+4SAS-embedded DMPC liposome system (Invention Product 4, FeT2 MPyP concentrations: 0, 12.5, 25, 50, 100 μM) as a test sample and its corresponding cationic metalloporphyrin complex (FeT2 MPyP) and ion complex system (FeT2 MPyP+4SAS) as reference samples. As cells, on the other hand, mouse lung cancer cells [Lewis Lung Carcinoma (LLC), Riken Gene Bank] were used.\nIn the test, the mouse lung cancer cells were cultured in DMEM medium with 10% FBS added therein. Subsequent to determination of the cell count and adjustment of the cell concentration, the resulting cell suspension was added to the individual wells of a 96-well plate (100 μL/well, cell count: 1×10^4 cells/well), followed by incubation for 24 hours in a carbon dioxide incubator (CO2:5%). After the medium was removed from the plate, sample solutions of the respective concentrations (100 μL/well, sample concentrations: 0 to 100 μM), said sample solutions having had been prepared in advance, were added, followed by further incubation for 24 hours in the CO2 incubator.\nAn Alamar Blue solution, which had been sterilized by filtration, was added at 10 μL/well, followed by incubation for 5 hours. Subsequently, absorbance measurements (measurement wavelength: 570 nm, and reference wavelength: 600 nm) were conducted by using a microplate reader.\nAnticancer characteristics of Pr-embedded liposomes according to the present invention were examined by a cytotoxicity test (apoptosis test) making use of the Alamar Blue technique as in Example 15.\nAs test samples, various Pr-embedded liposomes were used (metalloporphyrin complex concentrations: 0, 12.5, 25, 50, 100 μM). As reference samples, on the other hand, the components of the Pr-embedded liposomes, that is, the metalloporphyrin complexes (concentrations: 0, 12.5, 25, 50, 100 μM) and liposomes (concentrations: 2500, 5000, 10000, 20000 μM) were employed (the concentrations of both of the components were set corresponding to the concentrations of the Pr-embedded liposomes).\nProvided as comparative samples were cisplatin (CDDP; concentrations: 0, 10, 20, 40, 80 μM) and mitomycin C (MMC; concentrations: 0, 7.5, 15, 30, 60 μM), which are anticancer agents employed at present. A test was conducted as in Example 15, and the following results were obtained.\nAnticancer characteristics of pH-sensitive, Pr-embedded liposomes were examined by a cytotoxicity test (apoptosis test) making use of the Alamar Blue technique as in Example 15. […]"}, "[2]": {"details": "literature value reported by Fridovich et al.; Table 6; cited from earlier work"}, "[3]": {"details": "literature value reported by Ohse, Kawakami et al.; Table 7; cited from earlier work"}, "[4]": {"experiment": "SOD activity (O2-. scavenging) by the cytochrome c method", "type": "biochemical", "details": "Table 8", "experimental": "The SOD activity (in other words, O2^−. scavenging activity) of each Pr-embedded liposome was evaluated by the cytochrome c method proposed by Mccord and Fridovich or Butler et al. [(1) J. M. Mccord and I. Fridovich, J. Biol. Chem., 244, 6049 (1969) and (2) J. Butler, W. H. Kopenol, E. Margoliash, J. Biol. Chem., 257, 10747 (1982)]. Specifically, the evaluation was conducted as will be described hereinafter. Solutions (Solutions A) of each Pr-embedded liposome were prepared at five or more concentration levels of from 0 to 1,000 μM in terms of the concentration of the metalloporphyrin. […] With the resultant mixture, a 7 μg/mL aqueous catalase solution (0.1 mL) and a 25 U/mL aqueous xanthine oxidase (XOD) solution (0.3 mL) were promptly mixed, and UV-vis was measured with time at 550 nm (absorption peak based on the formation of ferrocytochome c)(the final concentrations of the respective components in the test solution were as follows: the metal porphyrin complex, 0 to 100 SM; xanthine, 0.05 mM; XOD, 2.5U/mL; cytochrome c, 10 μM; catalase, 0.23 μg/mL). […] Finally, the concentration (IC50) of each metalloporphyrin complex at IC=50% was determined from the concentration of metalloporphyrin-versus-IC” relationship, and the IC50 was used as an index of the SOSD-activating effect of the metalloporphyrin complex (smaller IC50 indicates higher SOD activity). […]"}, "[5]": {"experiment": "SOD activity (O2-. scavenging) by the stopped-flow method", "type": "biochemical", "details": "Table 8", "experimental": "The SOD activity (in other words, O2^−. scavenging activity) of each Pr-embedded liposome was evaluated by the stopped-flow method proposed by Riley et al. [D. P. Riley, W. L. Rivers, and R. H. Weiss, Anal. Biochem., 196, 344 (1991)]. Specifically, the evaluation was conducted as will be described hereinafter. At 36° C., a solution of potassium superoxide as an O2^−. production source in dimethylsulfoxide and one of 60 mM HEPES/HEPESNa buffered solutions (pH 8.1), which contained one of the Pr-embedded liposomes at various concentrations, were promptly mixed, and the decay in absorbance at 245 nm due to O2^−. (the decay curve of O2^−. scavenging reaction) was measured with time. From the decay curve, a “ln (absorbance)-versus-time” relationship was determined, and further, an apparent rate constant was calculated from the slope of the relationship. From the slope of the “concentration of metalloporphyrin complex-versus-apparent rate constant” relationship, the rate constant (Kcat) of the O2^−. scavenging reaction was finally determined. As a reference, ion complexes (MnT4 MPyP+1SAS and MnT4 MPyP+4SAS) were also evaluated likewise in SOD activity.\nVarious metalloporphyrin complexes, which represent Pr-embedded liposomes, were compared in SOD activity. […] Incidentally, the samples were prepared and measured as in Examples 19 and 20."}}, "note": "Read-outs that look alike come from different tables or passages of the source."}
{"molecule": "CO[C@@]12[C@H](COC(N)=O)C3=C(C(=O)C(C)=C(N)C3=O)N1C[C@@H]1N[C@@H]12", "note": "[MMC, mitomycin C, reference compound]", "values": [{"measurement": "viability of LLC versus added concentration", "setting": "[1]", "value": "dropped as the added concentration increased"}]}
{"molecule": "C[n+]1ccc(-c2c3nc(c(-c4cc[n+](C)cc4)c4ccc([n-]4)c(-c4cc[n+](C)cc4)c4nc(c(-c5cc[n+](C)cc5)c5ccc2[n-]5)C=C4)C=C3)cc1.[Mn+2]", "note": "[MnT4MPyP, manganese[5,10,15,20-tetrakis(4-methylpyridyl)porphyrin]]", "values": [{"measurement": "IC50", "setting": "[2]", "value": 700, "unit": "nM"}, {"measurement": "Kcat", "setting": "[3]", "value": "2.2e+07", "unit": "M⁻¹ s⁻¹"}, {"measurement": "IC50", "setting": "[4]", "value": 740, "unit": "nM"}, {"measurement": "Kcat", "setting": "[5]", "value": "2.2e+07", "unit": "M⁻¹ s⁻¹"}]}
{"molecule": "[NH2][Pt]([NH2])([Cl])[Cl]", "note": "[CDDP, cisplatin, reference compound]", "values": [{"measurement": "viability of LLC versus added concentration", "setting": "[1]", "value": "dropped as the added concentration increased"}]}
{"molecule": "C[n+]1ccccc1-c1c2nc(c(-c3cccc[n+]3C)c3ccc([n-]3)c(-c3cccc[n+]3C)c3nc(c(-c4cccc[n+]4C)c4ccc1[n-]4)C=C3)C=C2.[Fe+2]", "note": "[FeT2 MPyP, iron[5,10,15,20-tetrakis(2-methylpyridyl)porphyrin]]", "values": [{"measurement": "viability of LLC versus added concentration", "setting": "[1]", "value": "dropped as the added concentration increased"}, {"measurement": "viability of LLC compared with CDDP and MMC", "setting": "[1]; FeT2 MPyP concentrations of 25 μM and higher", "value": "lower than those in the cases of CDDP and MMC"}]}
